Experimental data from PMC10387993, “New pyrimidine-N-β-D-glucosides: synthesis, biological evaluation, and molecular docking investigations” (Turkish Journal of Chemistry, 2023).
≈ marks a conversion by molar mass, not a printed value.

Legend:
Type in all cases: cell-based
[1] = LDH cytotoxic activity assay, MCF7; details: human, MCF7 cells; for cytotoxicity at 24 h, 25 μg/mL: MCF7, 25 μg/mL; for cytotoxicity at 24 h, 50 μg/mL: MCF7, 50 μg/mL; for cytotoxicity at 24 h, 75 μg/mL: MCF7, 75 μg/mL
Experimental: (§1) The cell lines were cultured in a cell medium (Dulbecco’s modified eagle’s or RPMI 1640) enriched with 10% (v/v) fetal bovine serum and 2% (v/v) Penicillin-Streptomycin (10,000 U/mL). First, old medium was removed out of the flask when the cells reached approximately 80% confluence. Next, cells were taken from the flasks surface using trypsin-EDTA solution and then subjected to centrifugation. Following, the cell pellet was suspended with fresh media and was inoculated into wells.
(§2) Approximately 5 × 10^3 cells in 100 μL were placed into 96-well plates as triplicates and treated with 25, 50, 75, and 100 μg/mL concentrations of test compounds at 37 °C with 5% CO2 for 24 h. LDH activity was obtained by determining absorbance at 492–630 nm using a microplate reader.

[2] = LDH cytotoxic activity assay, Hep3B; details: human, Hep3B cells
Experimental: as §1, §2

[3] = LDH cytotoxic activity assay, A549; details: human, A549 cells; for cytotoxicity at 24 h, 25 μg/mL: A549, 25 μg/mL; for cytotoxicity at 24 h, 50 μg/mL: A549, 50 μg/mL; for cytotoxicity at 24 h, 75 μg/mL: A549, 75 μg/mL; for cytotoxicity at 24 h, 100 μg/mL: A549, 100 μg/mL
Experimental: as §1, §2

[4] = LDH cytotoxic activity assay, C6; details: rat, C6 glioma cells; for cytotoxicity at 24 h, 25 μg/mL: C6, 25 μg/mL; for cytotoxicity at 24 h, 50 μg/mL: C6, 50 μg/mL; for cytotoxicity at 24 h, 75 μg/mL: C6, 75 μg/mL; for cytotoxicity at 24 h, 100 μg/mL: C6, 100 μg/mL
Experimental: as §1, §2

[5] = LDH cytotoxic activity assay, FL; details: human, FL cells (normal cells)
Experimental: as §1, §2

Hep3B = assay: cells; details: Homo sapiens; for GI50 / IC50 / IC (total growth inhibition): MTT; for IC50: read-out: IC50; for IC (total growth inhibition): read-out: TGI; for LC50 (concentration causing 50% net cell loss relative to time zero): read-out: LC50
Method in brief: (§3)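 In this MTT proliferation screen, formazan formed over 4 h was read at 560 nm against a 690 nm reference. Each line was tested at least three times, and the IC50 was taken as the concentration inhibiting half of the cells.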

MCF7 = assay: cells; details: Homo sapiens; for LC50 (concentration causing 50% net cell loss relative to time zero): MCF7, read-out: LC50; for GI50 / IC50 / IC (total growth inhibition): MCF7, MTT; for IC50: read-out: IC50; for IC (total growth inhibition): read-out: TGI
Method in brief: as §3

C6 (Rat brain glioma) = assay: cells; details: Rattus norvegicus; for LC50 (concentration giving 50% net cell loss relative to time zero): read-out: LC50; for GI50 / IC50 / IC (total growth inhibition): C6, MTT; for IC50: read-out: IC50; for IC (total growth inhibition): read-out: TGI
Method in brief: as §3

HT29 = assay: cells; details: Homo sapiens; for LC50 (concentration giving 50% net cell loss relative to time zero): HT-29, read-out: LC50; for GI50 / IC50 / IC (total growth inhibition): HT-29, HT29, MTT; for IC50: read-out: IC50; for IC (total growth inhibition): read-out: TGI
Method in brief: as §3

[6] = as the column head prints, head prints FL

Compound | cytotoxicity at 24 h, 25 μg/mL [4] [%] | cytotoxicity at 24 h, 50 μg/mL [4] [%] | cytotoxicity at 24 h, 75 μg/mL [4] [%] | cytotoxicity at 24 h, 100 μg/mL [4] [%] | GI50 (Hep3B) [µg/mL] | IC50 (Hep3B) [µg/mL] | IC (total growth inhibition) (Hep3B) [µg/mL] | LC50 (concentration causing 50% net cell loss relative to time zero) (Hep3B) [µg/mL] | LC50 (concentration causing 50% net cell loss relative to time zero) (MCF7) [µg/mL] | GI50 (MCF7) [µg/mL] | IC50 (MCF7) [µg/mL] | IC (total growth inhibition) (MCF7) [µg/mL] | LC50 (concentration giving 50% net cell loss relative to time zero) (C6 (Rat brain glioma)) [µg/mL] | GI50 (C6 (Rat brain glioma)) [µg/mL] | IC50 (C6 (Rat brain glioma)) [µg/mL] | IC (total growth inhibition) (C6 (Rat brain glioma)) [µg/mL] | LC50 (concentration giving 50% net cell loss relative to time zero) (HT29) [µg/mL] | GI50 (HT29) [µg/mL] | IC50 (HT29) [µg/mL] | IC (total growth inhibition) (HT29) [µg/mL] | other results
Cc1cccc(-c2cc(-c3ccncc3)nc(N[C@@H]3O[C@H](CO)[C@@H](O)[C@H](O)[C@H]3O)n2)c1 [Compound 6, N-[4-(3-methylphenyl)-6-pyridin-4-ylpyrimidin-2-yl]-β-D-glucopyranosylamine] | 27.9 | 38.2 | 63.1 | 84.9 | 4.07 (≈ 9.59 µM) | > 500 | > 500 | > 500 | > 500 | 2.29 (≈ 5.4 µM) | > 500 | > 500 | > 500 | > 500 | > 500 | > 500 | > 500 | 4.29 (≈ 10.1 µM) | > 500 | > 500 | cytotoxicity at 24 h, 25 μg/mL [1]: 7.22%; cytotoxicity at 24 h, 50 μg/mL [1]: 12.5%; cytotoxicity at 24 h, 75 μg/mL [1]: 31.8%; cytotoxicity at 24 h, 25 μg/mL [2]: 10%; cytotoxicity at 24 h, 50 μg/mL [2]: 15.4%; cytotoxicity at 24 h, 75 μg/mL [2]: 35.9%; cytotoxicity at 24 h, 100 μg/mL [2]: 41.1%; cytotoxicity at 24 h, 25 μg/mL [3]: 27%; cytotoxicity at 24 h, 50 μg/mL [3]: 32%; cytotoxicity at 24 h, 75 μg/mL [3]: 48.1%; cytotoxicity at 24 h, 100 μg/mL [3]: 72.8%; cytotoxicity at 24 h, 25 μg/mL ([5]; FL): 19.1%; cytotoxicity at 24 h, 50 μg/mL ([5]; FL): 27.6%; cytotoxicity at 24 h, 75 μg/mL ([5]; FL): 50.9%; cytotoxicity at 24 h, 100 μg/mL ([5]; FL): 63.4%; cytotoxicity at 24 h, 100 μg/mL [5, 6]: 41.9%
Cc1cccc(-c2cc(-c3cccnc3)nc(N[C@@H]3O[C@H](CO)[C@@H](O)[C@H](O)[C@H]3O)n2)c1 [Compound 5, N-[4-(3-methylphenyl)-6-pyridin-3-ylpyrimidin-2-yl]-β-D-glucopyranosylamine] | 26.9 | 44.1 | 62.6 | 87.1 | 3.61 (≈ 8.5 µM) | 20.1 (≈ 47.4 µM) | 20.5 | > 500 | > 500 | 2.53 (≈ 5.96 µM) | 66.8 (≈ 157 µM) | 75.7 | 249 (≈ 587 µM) | 4.56 (≈ 10.7 µM) | 33.5 (≈ 78.9 µM) | 18.1 | > 500 | 4.12 (≈ 9.71 µM) | 72.6 (≈ 171 µM) | 126 | cytotoxicity at 24 h, 25 μg/mL [1]: 8.23%; cytotoxicity at 24 h, 50 μg/mL [1]: 12.2%; cytotoxicity at 24 h, 75 μg/mL [1]: 24.9%; cytotoxicity at 24 h, 25 μg/mL [2]: 14.1%; cytotoxicity at 24 h, 50 μg/mL [2]: 25.5%; cytotoxicity at 24 h, 75 μg/mL [2]: 42.8%; cytotoxicity at 24 h, 100 μg/mL [2]: 52.5%; cytotoxicity at 24 h, 25 μg/mL [3]: 24.4%; cytotoxicity at 24 h, 50 μg/mL [3]: 31.3%; cytotoxicity at 24 h, 75 μg/mL [3]: 51.5%; cytotoxicity at 24 h, 100 μg/mL [3]: 66.3%; cytotoxicity at 24 h, 25 μg/mL ([5]; FL): 16.6%; cytotoxicity at 24 h, 50 μg/mL ([5]; FL): 32.9%; cytotoxicity at 24 h, 75 μg/mL ([5]; FL): 62.6%; cytotoxicity at 24 h, 100 μg/mL ([5]; FL): 76.8%; cytotoxicity at 24 h, 100 μg/mL [5, 6]: 36.4%
CC(=O)OC[C@H]1O[C@@H](Nc2nc(-c3ccc(C)cc3)cc(-c3ccccn3)n2)[C@H](OC(C)=O)[C@@H](OC(C)=O)[C@@H]1OC(C)=O [Compound 16, 2,3,4,6-tetra-O-acetyl-N-[4-(4-methylphenyl)-6-pyridin-2-ylpyrimidin-2-yl]-β-D-glucopyranosylamine] | 17.1 | 28.9 | 63.2 | 84.7 | 1.99 (≈ 3.36 µM) | 7.18 (≈ 12.1 µM) | 7.33 | 326 (≈ 550 µM) | 495 (≈ 835 µM) | 1.41 (≈ 2.38 µM) | 4.12 (≈ 6.95 µM) | 4.29 | 22.9 (≈ 38.6 µM) | 1.4 (≈ 2.36 µM) | 4.38 (≈ 7.39 µM) | 2.8 | 122 (≈ 205 µM) | 1.47 (≈ 2.48 µM) | 3.26 (≈ 5.5 µM) | 3.88 | –
